Measurements: US20210106566A1, “PHARMACEUTICAL COMPOSITION FOR TREATING AND/OR PREVENTING PERIPHERAL NEUROPATHY OR SPINAL CORD INJURY” (NATIONAL UNIVERSITY CORPORATION NAGOYA UNIVERSITY, priority 2015, published 2021)

Experiments:
primary motor neurons = assay: Time-lapse imaging of axonal growth; type: cell-based, mouse
Method: Primary cultured motor neurons were seeded in a 96-well plate at 6.0×10^3 cells/well in Sumilon neuron culture medium to induce neurite outgrowth. Phase-contrast images were taken every 8 hours for 3 days on IncuCyte ZOOM Live Cell Imaging System (Essen Bioscience). The neurite length was automatically analyzed with NeuroTrack software (IncuCyte).

Chrne, Colq, and Rapsn = assay: Mouse sciatic nerve autologous transplantation model: mRNA in gastrocnemius muscle; type: in vivo; settings: 8 weeks after surgery, 30 mg/kg/day
Source text: Adult male C57BL/6J mice (8 weeks old; 19.5-22.0 g) were purchased from Charles River. The mice were anesthetized with isoflurane and underwent gluteal muscle incision under a sterile condition to expose the sciatic nerve in the left leg. The sciatic nerve was cut at the following two sites (1) and (2): (1) the site 3 mm distal to the first bifurcation of biceps femoris (hereinafter referred to as proximal transection site) (2) the site 3 mm distal to the proximal transection site (hereinafter referred to as distal transection site) The excised nerve segment with a length of 3 mm was confirmed to be completely cut at the two sites. The perineurium was sutured with nylon thread (10-0 black) at the proximal transection site and the distal transection site under a microscope. The remaining thread was used as a marker for finding the nerve transection site in the sacrifice of the mice. In order to reduce DMSO toxicity, a solution of 60 mg/mL zonisamide in 100% DMSO was prepared and the solution was diluted in olive oil to give a solution of 3 mg/mL zonisamide in 5% DMSO. The control solution (5% DMSO) or zonisamide (3 mg/mL×about 0.2 mL) at 30 mg/kg/day was administered to the stomach using a disposable probe needle (flexible type, Fuchigami) once a day for 1 to 8 weeks from the end of surgery until sacrifice. Myelin sheath formation in the sciatic nerve was analyzed in six mice in each group. One week after the sciatic nerve autologous transplantation, the sciatic nerve was transected at “the proximal transection site” and “the site 3 mm distal to the distal transection site” to excise a nerve segment with a length of 6 mm. […] The number and area of myelinated axons in the sciatic nerve were manually measured using ImageJ software in a blinded fashion. […] The mRNA expression levels of Bdnf, Ngf, Ntf4, Ntrk1, Ntrk2, Map2, Mapt, Gap43, Chrne, Colq, and Rapsn were quantified in a manner similar to Example 5.

NS(=O)(=O)Cc1noc2ccccc12 [Zonisamide, 3-sulfamoylmethyl-1,2-benzisoxazole]
neurite outgrowth effect, time-lapse imaging (primary motor neurons; forty hours after zonisamide administration, FIG. 3): neurite outgrowth effect was observed
neurite outgrowth effect, 10 μmol/L versus 1 μmol/L (primary motor neurons; throughout the observation period (3 days)): higher in the 10 μmol/L zonisamide administration group than in the 1 μmol/L zonisamide administration group
expression level of Chrne (Chrne, Colq, and Rapsn): increased
expression level of Colq (Chrne, Colq, and Rapsn): increased
expression level of Rapsn (Chrne, Colq, and Rapsn): increased
